Experiments:
aerobic microflora = assay: Growth of cat oral bacterial microflora in artificial saliva with protein, with or without phosphate: aerobic count; type: cell-based; conditions: MP9007 1%
Description: (§1) For all the experiments, the bacterial microflora of the oral cavity was removed, kept in a conservation medium, and then cultured in artificial saliva according to the following protocol:
(§2) Two male cats of “European” race, weighing approximately 5.50 kg, were anesthetized with 0.3 ml of a solution of medetomidine at 0.085 g/100 ml (Domitor, ND) and 0.26 ml of a solution of ketamine at […] (Imalgene 1000, ND).
(§3) In each animal thus immobilized, the saliva was sterilely suctioned with a pipette and the base of the teeth, the gums and the gum pockets were scraped with the back of a sterile scalpel.
(§4) All the samples were transferred and well-diluted in 100 ml of a sterile conservation medium (thiocolate resazurin medium from Biokar supplemented with 25% of glycerol). The conservation medium containing the samples was transferred into tubes with microbeads (Cryobilles, ND from AES). These tubes were then incubated for 6 hours in an incubator at 37° C., in a jar under CO2, before being frozen for subsequent use.
(§5) When subsequently used, each tube is thawed at ambient temperature and then incubated for 12 hours at 37° C., in a jar under CO2. The aerobic and anaerobic bacteria are counted according to the methods described hereinafter. The content of each tube is subsequently diluted with the sterile conservation medium so as to have an inoculum of 5000 (3.70 log10) revivable microorganisms in 0.2 ml.
The aerobic microflora is cultured and then counted on a trypticase soy medium (Biokar) incubated at 37° C. for 48 hours.
(§6) The basic artificial saliva is prepared according to table 31 on page 244 of the manual Biological Handbooks—Metabolism, compiled and edited by Philip L. Altman and Dorothy S. Dittmer, published by Federation of American Societies for Experimental Biology, 1968.
(§7) This basic saliva is supplemented with L-cysteine at a rate of 0.5 g/liter in order to lower its redox potential so as to be able to grow therein both the aerobic bacterial microflora and the anaerobic bacterial microflora. The whole will subsequently be referred to as “artificial saliva”.
(§8) The artificial saliva is dispensed into test tubes at a rate of 20 ml per tube. Each tube is supplemented or not supplemented with the protein, in the presence or absence of the phosphate to be tested. Each treatment is composed of two tubes.
(§9) The whole is autoclaved at 110° C. for 15 minutes.
(§10) Each tube is subsequently inoculated with 0.2 ml of inoculum described above. The whole is incubated in an incubator at 37° C., with shaking.
(§11) After 24, 48 or 72 hours of incubation, the aerobic flora and the anaerobic flora are counted according to the methods described above.
(§12) The result of each treatment is the mean of the counts of two test tubes, expressed as log10 of C.F.U. (Colony Forming Units) per ml of artificial saliva.

anaerobic microflora = assay: Growth of cat oral bacterial microflora in artificial saliva with protein, with or without phosphate: anaerobic count; type: cell-based; conditions: MP9007 1%
Description: as §1, §2, §3, §4, §5
The anaerobic microflora is cultured and then counted on a Schaedler medium (Biokar) supplemented with 5% of sterile defibrinated sheep blood, incubated at 37° C., in a jar under CO2, for 48 hours.
as §6, §7, §8, §9, §10, §11, §12

[1] = Experiment 2, trisodium pyrophosphate 5%
[2] = Experiment 2, trisodium pyrophosphate 10%
[3] = Experiment 2, trisodium phosphate at 5%, from 24 hours of incubation
[4] = Experiment 2, trisodium phosphate incorporated at 10%
[5] = Experiment 3, trisodium pyrophosphate 0.5%

O=P([O-])([O-])OP(=O)([O-])O.[Na+].[Na+].[Na+] [Trisodium pyrophosphate, trisodium pyrophosphate]
Aerobic microflora CFU/ml, 24 hours (aerobic microflora; [1]): 6.88 log10 CFU/ml
Aerobic microflora CFU/ml, 48 hours (aerobic microflora; [1]): 7.56 log10 CFU/ml
Aerobic microflora CFU/ml, 72 hours (aerobic microflora; [1]): 7.69 log10 CFU/ml
Aerobic microflora CFU/ml, 24 hours (aerobic microflora; [2]): <4.00 log10 CFU/ml
Aerobic microflora CFU/ml, 48 hours (aerobic microflora; [2]): 4.88 log10 CFU/ml
Aerobic microflora CFU/ml, 72 hours (aerobic microflora; [2]): <4.00 log10 CFU/ml
Inhibitory effect on the prebiotic effect of MP9007, aerobic microflora (in words) (aerobic microflora; [3]): very substantial
Inhibition of the prebiotic effect of the MP9007 protein, aerobic microflora (in words) (aerobic microflora; [4]): completely inhibited
Aerobic microflora CFU/ml, 24 hours (aerobic microflora; [5]): 7.75 log10 CFU/ml
Anaerobic microflora CFU/ml, 24 hours (anaerobic microflora; [1]): 6.88 log10 CFU/ml
Anaerobic microflora CFU/ml, 48 hours (anaerobic microflora; [1]): 7.46 log10 CFU/ml
Anaerobic microflora CFU/ml, 72 hours (anaerobic microflora; [1]): 6.26 log10 CFU/ml
Anaerobic microflora CFU/ml, 24 hours (anaerobic microflora; [2]): <4.00 log10 CFU/ml
Anaerobic microflora CFU/ml, 48 hours (anaerobic microflora; [2]): <4.00 log10 CFU/ml
Anaerobic microflora CFU/ml, 72 hours (anaerobic microflora; [2]): <4.00 log10 CFU/ml
Inhibitory effect on the prebiotic effect of MP9007, anaerobic microflora (in words) (anaerobic microflora; [3]): very substantial
Inhibition of the prebiotic effect of the MP9007 protein, anaerobic microflora (in words) (anaerobic microflora; [4]): completely inhibited
Anaerobic microflora CFU/ml, 24 hours (anaerobic microflora; [5]): 7.75 log10 CFU/ml
